Experimental data taken from patent publication US11788044B2, “Rheologically biomimetic fluid surrogate” (EMULATE, INC., priority 2017, dated 2023).

Legend:
[1] = test system: neutrophil recruitment to the endothelium; test: Neutrophil recruitment in Airway-on-Chip emulating acute asthma exacerbation (HRV-16 infection, IL-13 stimulation); format: cell-based, human; details: 10 microM; three stimulation conditions (HRV-16, IL-13, HRV-16+IL-13); chips flipped
Description: As shown here, exemplary embodiments of an inflamed Airway-on-Chip emulating acute asthma exacerbation by combining Rhinovirus infection with IL-13 stimulation in the presence of an exemplary immuno-modulatory compound. In some embodiments, neutrophil recruitment following exacerbation with HRV can be reduced by an exemplary CXCR2 antagonist MK-7123, however these experiments were done by flipping chips. […] HRV-16 is represented as small green dots in the upper channel while neutrophil cells (also described as polymorphonuclear leukocytes (PMN)) are represented as large purple spots in the lower channel. […] Treatments included HRV-16 alone infected cells, IL-13 alone treated cells, HRV-16 and (+) IL-13 treated cells, HRV-16+CXCR2in (inhibitor) treated cells, and HRV-16+IL-13+CXCR2in. Non-stimulated chips are showing limited neutrophil recruitment while HRV infected and IL-13-treated chips show increased neutrophil recruitment. IL-13+HRV induce an additive increase in neutrophil recruitment, while treatment with a CXCR2 antagonist. […] Quantification of neutrophil recruitment (**p<0.01; ****p<0.001).
HRV-16 is represented as small green dots in the upper channel while neutrophil cells (also described as polymorphonuclear leukocytes (PMN)) are represented as large purple spots in the lower channel. […] Quantification of neutrophil recruitment (**p<0.01; ****p<0.001).

[2] = test system: goblet cells hyperplasia, pro-inflammatory cytokines, cilia beating frequency; test: Small-airway-on-a-chip perfused with IL-13 (Th2 microenvironment), airway remodeling phenotype; format: cell-based, human; details: IL-13 through the vascular channel

CC[C@@H](Nc1c(Nc2cccc(C(=O)N(C)C)c2O)c(=O)c1=O)c1ccc(C)o1 [MK-7123]
neutrophil recruitment [1]: significantly reduced neutrophil recruitment

C[C@@H]1CCN(C(=O)CC#N)C[C@@H]1N(C)c1ncnc2[nH]ccc12 [Tofacitinib]
IL-13 induced airway remodeling phenotype [2]: suppressed
